Data: US10632181B2, “Composition, containing RGD motif-containing peptide or fragment thereof, for treating burns and glaucoma, alleviating skin wrinkles, and promoting hair growth” (HUONS CO., LTD., priority 2014, dated 2020)
Positions of bridges follow the written chain, without caps; N, C: chain ends. No end group written: not given here.

Experiments:
[1] = test system: wrinkles around eyes; experiment: Wrinkle extent around eyes by 3D imaging (PRIMOS Premium); assay type: in vivo, Women aged 30-65; settings: for Rmax numerical value (maximum height of wrinkle profile) / Rp numerical value (maximum profile peak height) / Rv numerical value (maximum profile valley depth): in µm (unit assumed)
Method: Furthermore, the wrinkle extent was measured by 3D imaging. A target site to measure the wrinkle extent was regions around the eyes of the subjects, and the right side of the face was set as a measurement site. To measure the wrinkle extent, the subjects were allowed to wash the measurement site with water, and take a rest for 30 minutes in the waiting room under constant temperature constant humidity conditions of indoor temperature 20-25° C. and humidity 40-60% to acclimate the skin surface temperature and humidity to the environment of the measurement space, and were not permitted to drink water during the rest. For objective measurement, measurements were performed by one researcher, and the same site was measured at each time of the first visit before use and the second and third visits in 2 and 4 weeks after use. Before use and in 2 and 4 weeks after use, images of the site to which the test product (HU022 (SEQ ID NO:1)) was applied were formed using 3D skin imaging machine (PRIMOS Premium), and to verify if there is any difference in each of control group and experimental group in 4 weeks after use, wrinkle parameters, Ra, Rmax, Rt, Rp, Rv values, in the stored images of 2 weeks and 4 weeks after use relative to before use were analyzed.

[2] = test system: wrinkles around eyes; experiment: Expert visual assessment of wrinkles (global photodamage score); assay type: in vivo, Women aged 30-65; settings: for expert visual assessment score: severity 0-7
Method: Furthermore, visual assessment was performed. At each visit before and after use, experts assessed the wrinkle extent by scoring using global photodamage score (Br J Dermatol. 2010; 162(3):497-502). To verify if there is any difference in each of control group and experimental group in 4 weeks after use, a change (%) in visual assessment scores of 2 weeks and 4 weeks after use relative to before use was analyzed. The visual assessment scores are as follows (Table 18): […]

[3] = test system: wrinkles around eyes; experiment: Survey of subjects about wrinkle reduction effectiveness; assay type: in vivo, Women aged 30-65
Method: Furthermore, surveying the subjects about effectiveness was conducted. The subjects were asked to personally make responses about the extent to which the subjects felt that wrinkles reduced after use of test product using 5 levels: better (4), a little bit better (3), no change (2), a little bit worse (1), worse (0). The researcher determined if test product has efficacy by calculating the percentage of the number of subjects for each response.

[4] = test system: wrinkles around eyes; experiment: Wrinkle extent around eyes, skin replica, Visiometer SV600; assay type: in vivo, Women aged 30-65; design: R3 numerical value (average roughness) / R1 numerical value (skin roughness) / R4 numerical value (smoothness depth) / R5 numerical value (arithmetic average roughness): unit not given here
Method: The extent of wrinkles around eyes was measured using equipment. A target site to measure the wrinkle extent was regions around the eyes of the subjects, and the left side and the right side of the face were set as a measurement site. To measure the wrinkle extent, the subjects were allowed to wash the measurement site with water, and take a rest for 30 minutes in the waiting room under constant temperature and constant humidity conditions of indoor temperature 20-25° C. and humidity 40-60% to acclimate the skin surface temperature and humidity to the environment of the measurement space, and were not permitted to drink water during the rest. For objective measurement, measurements were performed by one researcher, and the same site was measured at each time of the first visit before use and the second and third visits in 2 and 4 weeks after use. Transparency profilometry analysis was performed using Visiometer SV600 (Courage-Khazaka electronic GmbH, Germany) on skin replica of the site to which test product and control product were applied before use and 2 and 4 weeks after use, and to identify if there is any difference in each of control group and experimental group after use, a change (%) in R1, R2, R4, R5 measurement values in 2 and 4 weeks after use relative to before use was analyzed.

[5] = test system: wrinkles around eyes; experiment: as above; assay type: in vivo, Women aged 30-65; design: R3 numerical value (average roughness): unit not given here
[6] = test system: skin; settings: in vivo
Method: Women aged 30-65 having wrinkles around eyes were tested. […] They had second and third visits at the interval of 2 weeks after the start of use, and at each visit, were required to respond to various types of assessment and investigation defined in the experiment.
Furthermore, safety assessment was performed, and for safety of clinical test product, in all subjects having used the test product at least once, abnormal responses found at the second week and fourth week after use and abnormal responses reported during the test period were all used as safety assessment data of the product.

[7] = response 2 (fair), 4 weeks after use
[8] = response 3 (good), 4 weeks after use
[9] = response 4 (very good), 4 weeks after use

Which “Ra numerical value (roughness average of wrinkle profile)” value (shortened to “Ra numerical value”) ([1]; 2 weeks after use, twice daily) does the source give for “HU024 (RPTRGDCDLPEFCPG; disulfide 7-13; listed as Homo sapiens)” here?
The value was 18.33 ± 2.12.

And the “Rt numerical value (distance between highest peak and lowest valley)” value (from here on “Rt numerical value”) ([1]; 2 weeks after use, twice daily)?
The value was 216.37 ± 41.76.

And the “Rmax numerical value (maximum height of wrinkle profile)” value (shortened to “Rmax numerical value”) ([1]; 2 weeks after use, twice daily)?
The value was 198.77 ± 39.74.

What about the “Rp numerical value (maximum profile peak height)” value (from here on “Rp numerical value”) ([1]; 2 weeks after use, twice daily) of the same substance?
The value was 155.24 ± 43.18.

And the “Rv numerical value (maximum profile valley depth)” value (shortened to “Rv numerical value”) ([1]; 2 weeks after use, twice daily)?
The value was 61.12 ± 8.02.

And the “Ra numerical value” value ([1]; 4 weeks after use, twice daily)?
The value was 17.71 ± 2.43.

What about the “Rt numerical value” value ([1]; 4 weeks after use, twice daily) of the same substance?
Its value is 210.60 ± 38.61.

And the “Rmax numerical value” value ([1]; 4 weeks after use, twice daily)?
The value was 196.85 ± 39.02.

What about the “Rp numerical value” value ([1]; 4 weeks after use, twice daily) of the same substance?
The value was 153.78 ± 36.12.

And the “Rv numerical value” value ([1]; 4 weeks after use, twice daily)?
Its value is 56.82 ± 12.01.

And the “Ra numerical value” value ([1]; Before use)?
The value was 18.64 ± 3.19.

What about the “Rt numerical value” value ([1]; Before use) of the same substance?
Its value is 225.94 ± 45.00.

And the “Change(%) in Ra” value ([1]; Before use-2 weeks after use)?
The value was −0.75%.

What about the “Change(%) in Rmax” value ([1]; Before use-2 weeks after use) of the same substance?
The value was −3.77%.

What about the “Change(%) in Rp” value ([1]; Before use-2 weeks after use) of the same substance?
The value was −3.48%.

What about the “Change(%) in Rt” value ([1]; Before use-2 weeks after use) of the same substance?
The value was −4.24%.

And the “Change(%) in Rv” value ([1]; Before use-2 weeks after use)?
The value was −6.10%.

And the “Change(%) in Ra” value ([1]; Before use-4 weeks after use)?
Its value is −4.10%.

What about the “Change(%) in Rmax” value ([1]; Before use-4 weeks after use) of the same substance?
The value was −4.69%.

What about the “Change(%) in Rp” value ([1]; Before use-4 weeks after use) of the same substance?
Its value is −4.40%.

And the “Change(%) in Rt” value ([1]; Before use-4 weeks after use)?
The value was −6.79%.

And the “Change(%) in Rv” value ([1]; Before use-4 weeks after use)?
The value was −12.71%.

What about the “Rmax numerical value” value ([1]; Before use) of the same substance?
The value was 206.55 ± 40.54.

And the “Rp numerical value” value ([1]; Before use)?
Its value is 160.85 ± 37.51.

What about the “Rv numerical value” value ([1]; Before use) of the same substance?
Its value is 65.09 ± 11.95.

What about the “expert visual assessment score” value ([2]; 2 weeks after use) of the same substance?
The value was 2.00 ± 0.63.

And the “expert visual assessment score” value ([2]; 4 weeks after use)?
Its value is 1.67 ± 0.82.

And the “expert visual assessment score” value ([2]; Before use)?
Its value is 2.00 ± 0.63.

What about the “Change(%) in expert visual assessment score” value ([2]; Before use-2 weeks after use) of the same substance?
The value was 0%.

What about the “Change(%) in expert visual assessment score” value ([2]; Before use-4 weeks after use) of the same substance?
Its value is −16.67%.

What about the “Number of subjects, wrinkle reduction survey” value ([3]; response 0 (very bad), 4 weeks after use) of the same substance?
Its value is 0.

And the “Number of subjects, wrinkle reduction survey” value ([3]; response 1 (bad), 4 weeks after use)?
The value was 0.

What about the “Number of subjects, wrinkle reduction survey” value [3, 7] of the same substance?
Its value is 1.

What about the “Percentage of subjects, wrinkle reduction survey” value [3, 7] of the same substance?
The value was “(16.7) %”.

What about the “Number of subjects, wrinkle reduction survey” value [3, 8] of the same substance?
The value was 4.

What about the “Percentage of subjects, wrinkle reduction survey” value [3, 8] of the same substance?
The value was “(66.7) %”.

What about the “Number of subjects, wrinkle reduction survey” value [3, 9] of the same substance?
The value was 1.

What about the “Percentage of subjects, wrinkle reduction survey” value [3, 9] of the same substance?
The value was “(16.7) %”.

And the “Mean of wrinkle reduction survey response” value ([3]; scale 0-4, 4 weeks after use)?
The value was 3.00.

What about the “survey assessment about wrinkle reduction, test product versus control product” value ([3]; third visit, 4 weeks after use) of the same substance?
Its value is “test product was better at reducing wrinkles than control product”.

What about the “R1 numerical value (skin roughness)” value ([4]; 2 weeks after use, twice daily) of the same substance?
Its value is 57.29 ± 3.21.

What about the “R2 numerical value (maximum roughness)” value ([4]; 2 weeks after use, twice daily) of the same substance?
Its value is 30.71 ± 6.57.

And the “R3 numerical value (average roughness)” value ([4]; 2 weeks after use, twice daily)?
The value was 20.80 ± 3.97.

And the “R4 numerical value (smoothness depth)” value ([4]; 2 weeks after use, twice daily)?
The value was 26.24 ± 2.90.

What about the “R5 numerical value (arithmetic average roughness)” value (from here on “R5 numerical value”) ([4]; 2 weeks after use, twice daily) of the same substance?
Its value is 11.58 ± 0.89.

What about the “R1 numerical value (skin roughness)” value ([4]; 4 weeks after use, twice daily) of the same substance?
Its value is 45.23 ± 13.77.

What about the “R2 numerical value (maximum roughness)” value ([4]; 4 weeks after use, twice daily) of the same substance?
The value was 28.67 ± 7.47.

And the “R3 numerical value (average roughness)” value ([4]; 4 weeks after use, twice daily)?
Its value is 17.81 ± 4.00.

What about the “R4 numerical value (smoothness depth)” value ([4]; 4 weeks after use, twice daily) of the same substance?
Its value is 20.64 ± 6.07.

And the “R5 numerical value” value ([4]; 4 weeks after use, twice daily)?
The value was 8.42 ± 3.48.

And the “R1 numerical value (skin roughness)” value ([4]; Before use)?
Its value is 71.33 ± 15.86.

And the “R2 numerical value (maximum roughness)” value ([4]; Before use)?
The value was 46.06 ± 11.62.

What about the “R4 numerical value (smoothness depth)” value ([4]; Before use) of the same substance?
The value was 31.44 ± 11.04.

And the “R5 numerical value” value ([4]; Before use)?
The value was 13.52 ± 5.43.

What about the “Change(%) in R1” value ([4]; Before use-2 weeks after use) of the same substance?
The value was −19.68%.

What about the “Change(%) in R4” value ([4]; Before use-2 weeks after use) of the same substance?
The value was −16.54%.

What about the “Change(%) in R5” value ([4]; Before use-2 weeks after use) of the same substance?
Its value is −14.36%.

And the “Change(%) in R1” value ([4]; Before use-4 weeks after use)?
Its value is −36.59%.

And the “Change(%) in R3” value ([4]; Before use-4 weeks after use)?
The value was −54.55%.

What about the “Change(%) in R4” value ([4]; Before use-4 weeks after use) of the same substance?
The value was −34.36%.

What about the “Change(%) in R5” value ([4]; Before use-4 weeks after use) of the same substance?
The value was −37.71%.

What about the “R3 numerical value (average roughness)” value ([5]; Before use) of the same substance?
The value was 29.15 ± 5.56.

What about the “Change(%) in R3” value ([5]; Before use-2 weeks after use) of the same substance?
The value was −28.66%.

What about the “abnormal response / skin irritation” value [6] of the same substance?
The value was “safe product not causing irritation to the skin”.
